Where a name gives a salt, the structure may show the parent alone.
Test system: lipid peroxides (LPO) in rat brain homogenate
Assay: Antioxidant activity (Stocks' method): inhibition of lipid peroxide formation in brain homogenate supernatant, TBA method
Format: biochemical, Male Wistar rats
Details: for Inhibition (%): rat brain homogenate supernatant, 37° C., 60 minutes, MDA by TBA method
Description: Several typical examples of the compound according to the invention were tested for antioxidant activity according essentially to the Stocks' method. Male Wistar rats (about 10 weeks old) were used. After perfusion for removing the blood from the brain, brain tissues were excised and homogenized in 4 weights of 0.1M phosphate-buffered saline (pH 7.4) with water cooling. The homogenate was centrifuged at 1,000×g for 10 minutes and the supernatant was used. The brain homogenate supernatant was diluted with 10 volumes of phosphate-buffered saline and 500 μl of the dilution was incubated at 37° C. for 60 minutes. The reaction was terminated by dipping the test tube into ice. After further addition 490 μl of 0.1M phosphate-buffered saline, assay was performed by the TBA method. The quantity of lipid peroxides (LPO) was expressed in terms of amount of malonedialdehyde (MDA) per milligram of protein. For protein assay, the Lowry method was used.

Row | Compound | Inhibition (%) (dose 1 × 10^-3 M) | Inhibition (%) (dose 1 × 10^-4 M) | Inhibition (%) (dose 1 × 10^-5 M) | antioxidant activity (in words) (conclusion from the test results, compared to vitamin E)
1 | CCCCCCCCCCCC(=O)OCC(COP(=O)(O)OC1=C(O)C(C(O)CO)OC1=O)OC(=O)CCCCCCCCCCC (stereo not drawn) [(4), 1,2-O-Dilauroyl-3-glycerophosphoryl-ascorbic acid potassium salt] | 97.8% | 100% | 8.6% | 
2 | CCCCCCCCCCCCCCCCOCC(COP(=O)(O)OC1=C(O)C(C(O)CO)OC1=O)OCCCCCCCCCCCCCCCC (stereo not drawn) [(3), 1,2-O-Dihexadecyl-3-glycerophosphoryl-ascorbic acid] | 100% | 100% | 70.4% | 
3 | Vitamin E [reference compound] | 94.3% | 62.9% | 28.6% | 
4 | O=C1O[C@H]([C@@H](O)CO)C(O)=C1O [Ascorbic acid, reference compound] | -22.9% | -28.6% |  | rather promoted oxidation
5 | CCCCCCCCCCCCCCCC(=O)OCC(COP(=O)(O)OC1=C(O)C(C(O)CO)OC1=O)OC(=O)CCCCCCCCCCCCCCC (stereo not drawn) [(2), 1,2-O-Dipalmitoyl-3-glycerophosphoryl-ascorbic acid] | 100% | 100% | 55.9% | 
6 | CCCCCCCCCCCCCCCCCC(=O)OCC(COP(=O)(O)OC1=C(O)C(C(O)CO)OC1=O)OC(=O)CCCCCCCCCCCCCCCCC (stereo not drawn) [(1), 1,2-O-Distearoyl-3-glycerophosphoryl-ascorbic acid] | 100% | 100% | 25.7% | 
7 | CCCCCCCCCCCC(=O)OCC(COC(=O)CCCCCCCCCCC)OP(=O)(O)OC1=C(O)C(C(O)CO)OC1=O (stereo not drawn) [(5), 1,3-O-Dilauroyl-2-glycerophosphoryl-ascorbic acid potassium salt] | 100% | 82.2% | 20.1% | 
